According to patent publication US10259781B2, “Imaging agents” (THE REGENTS OF THE UNIVERSITY OF MICHIGAN, priority 2012, dated 2019):
Values belong to the molecule of their own block, whether it stands above or below them.

Tests used:
[1] = test system: cardiac sympathetic neurons; test: Isolated working rat heart model: neuronal uptake and clearance kinetics
Method: (§1) The radiotracer was infused into the heart for 10 minutes to measure the tracer uptake rate into cardiac sympathetic neurons (Kup, shown in units of ml/min/g tissue wet). Then, the heart was infused with normal heart perfusate to measure the tracer clearance rate from the heart over 2 hours.
(§2) Experiments were conducted to test ^11C-phenoxyethylguanidine (PEG), e.g., to establish baseline values for the NET transport rate (Kup, expressed in units of mL perfusate/min/g wet) and the clearance rate from sympathetic neurons (T1/2, expressed in units of hours).

[2] = test system: cardiac sympathetic neurons (NET-mediated neuronal uptake); test: as above; settings: isolated working rat heart (perfused, ex vivo), read-out: clearance rate from sympathetic neurons, major half-time (T1/2) (converted)
Method: as §1, §2

[3] = Metabolic breakdown in monkey plasma (reverse-phase HPLC of venous blood samples); type: in vivo, rhesus macaque monkey; settings: monkey plasma
Method: In some of the microPET studies, venous blood samples (e.g., n=6) were drawn to assess the metabolic breakdown of [^18F]4F-MHPG in plasma (see Table 1). Plasma was processed for injection onto a reverse-phase HPLC system equipped with a radiation detector. The percentages of intact parent tracer and radiolabeled metabolites were determined as a function of time. In this system, [^18F]4-MHPG has a retention time Rt of approximately 11.2 minutes while the main polar radiometabolite formed has an Rt of approximately 7.9 minutes.

Biodistribution in rats = type: in vivo, rat; settings: 30 minutes after injection, n=5
Method: During the development of embodiments of the technology, data were collected from bioevaluation studies of [^18F]4F-MHPG. […]
During the development of embodiments of the technology provided herein, the biodistribution of [^18F]4F-MHPG into the organs of rats was assessed. In particular, four time points (Table 3) were collected and used to derive human radiation absorbed dose estimates using the OLINDA/EXM 1.0 software package (see, e.g., Stabin et al. (2005) “OLINDA/EXM; the second-generation personal computer software for internal dose assessment in nuclear medicine”, J Nucl Med. 46: 1023-7). […] These values were entered into the Dynamic Bladder model of OLINDA/EXM, assuming a 4.0-hour void interval. Organs with the highest absorbed dose estimates included the urinary bladder wall (0.666 rad/mCi), […] (0.221 rad/mCi), small intestine (0.201 rad/mCi), and the heart wall (0.201 rad/mCi). An ‘effective dose’ of 0.091 rem/mCi was estimated for [^18F]4F-MHPG. Under United States Federal Regulations governing research with a new radiopharmaceutical (21 CFR § 361.1), the maximum allowable radiation absorbed dose to an individual organ (other than the gonads) is 5 rad. Considering the maximum estimated absorbed dose (urinary bladder wall; 0.666 rad/mCi), initial PET studies in human subjects could use a maximum of 7.5 mCi of [^18F]4F-MHPG. This would correspond to an ‘effective dose’ of 0.68 rem.

[4] = test system: cardiac sympathetic nerve terminals; test: MicroPET imaging and myocardial kinetics (compartmental modeling, Patlak graphical analysis) in monkeys; type: in vivo, rhesus macaque monkey; settings: indirect evidence from myocardial kinetics in monkeys
Method: A series of microPET imaging studies were performed in the macaque model to assess image quality and tracer kinetics. In most of these the time course of the metabolic breakdown of [^18F]4F-MHPG in plasma was also determined. The studies are summarized below in Table 1.
During the development of embodiments of the technology provided herein, the kinetics of [^18F]4F-MHPG in monkey hearts was assessed using either compartmental modeling or Patlak graphical analysis to obtain quantitative measures of regional cardiac sympathetic nerve density.
For some analyses, a simplified compartmental model that assumed irreversible trapping inside nerve terminals was used to estimate the model rate constants K1 (ml/min/g), k2 (min^−1), k3 (min^−1), and a blood volume fraction BV (dimensionless) (see, e.g., FIG. 7). In both the control studies and DMI blocking studies, the model quickly converged to a single global minimum in just a few iterations of the nonlinear regression analysis (FIG. 8). […] This aggregate parameter provides a stable measure of cardiac nerve density that declined in a dose-dependent manner with increasing DMI dose (FIG. 9, “Kinetic modeling”).
For some analyses, Patlak graphical analysis was used, which uses a mathematical transformation of the kinetic data Cp(t) and Ct(t) to generate a Tatlak plot′ having a characteristic linear phase (see, e.g., Patlak and Blasberg (1985) “Graphical evaluation of blood-to-brain transfer constants from multiple-time uptake data. Generalizations.” J Cereb Blood Flow 5: 584-90). The slope of the linear portion of a Patlak plot, Kp (ml/min/g), provides an alternate estimate of the ‘net uptake rate constant’ Ki (ml/min/g). Thus, for the model structure used (FIG. 7), the slope of the Patlak plot is given by Kp≈(K1k3)/(k2+k3).
During the development of embodiments of the technology provided herein, the myocardial kinetics of [^18F]4F-MHPG was assessed using Patlak graphical analysis and metabolite-corrected plasma input functions. In this example, the Patlak plot is highly linear (r^2=1.00) and the estimated Patlak slope Kpatlak=0.252 ml/min/g. […] As such, regional estimates of the Patlak slope from Patlak analysis of the kinetics of [^18F]4F-MHPG serve as robust measures of regional cardiac sympathetic nerve density in patients with heart diseases.

Structure (SMILES): N=[11C](N)NCCOc1ccc(F)c(O)c1 [^11C-4F-MHPEG, ^11C-4-fluoro-meta-phenoxyethylguanidine]
neuronal uptake rate / NET transport rate (Kup) [1]: 2.66 mL/min/g wet | vesicular trapping / retention [1]: effectively trapped inside storage vesicles

half-life [2]: 210 min
Structure (SMILES): N=C(N)NCCOc1ccc(F)cc1 [4F-PEG, ^11C-4-fluoro-phenoxyethylguanidine]
neuronal uptake rate / NET transport rate (Kup) [1]: 7.25 mL/min/g wet

T1/2 for metabolic breakdown in plasma [3]: approximately 13 minutes
Structure (SMILES): N=[11C](N)NCC(O)c1cccc(O)c1 (centres unmarked) [GMO, [^11C]guanyl-meta-octopamine, reference compound]

Structure (SMILES): N=C(N)NCCc1ccc(F)c(O)c1 [[^11C]4F-MHPG] [^11C-4-fluoro-meta-hydroxyphenethylguanidine]
tissue concentration, adrenal medulla (Biodistribution in rats): 0.56 ± 0.21 percentage of the injected dose per gram | tissue concentration, blood (Biodistribution in rats): 0.08 ± 0.01 percentage of the injected dose per gram | tissue concentration, left ventricle (Biodistribution in rats): 1.77 ± 0.27 percentage of the injected dose per gram | tissue concentration, liver (Biodistribution in rats): 1.22 ± 0.18 percentage of the injected dose per gram | tissue concentration, lung (Biodistribution in rats): 0.56 ± 0.15 percentage of the injected dose per gram | tissue concentration, muscle (Biodistribution in rats): 0.07 ± 0.01 percentage of the injected dose per gram | tissue concentration, spleen (Biodistribution in rats): 0.52 ± 0.10 percentage of the injected dose per gram

Structure (SMILES): N=[11C](N)NCCOc1ccc(O)c(F)c1 [^11C-3F-PHPEG, ^11C-3-fluoro-para-hydroxy-phenoxyethylguanidine]
neuronal uptake rate / NET transport rate (Kup) [1]: 4.26 mL/min/g wet

Structure (SMILES): N=C(N)NCCc1ccc([18F])c(OS(=O)(=O)O)c1 [sulfur conjugate of [^18F]4-MHPG]
activity at the norepinephrine transporter (NET) [4]: inactive

half-life [2]: 342 min
Structure (SMILES): N=C(N)NCCOc1ccccc1 [PEG, ^11C-phenoxyethylguanidine]
neuronal uptake rate / NET transport rate (Kup) [1]: 5.37 mL/min/g wet

Structure (SMILES): N=C(N)NCCOc1cccc(O)c1 [MHPEG, ^11C-meta-hydroxy-phenoxyethylguanidine]
neuronal uptake rate / NET transport rate (Kup) [1]: 5.37 mL/min/g wet | vesicular trapping / retention [1]: complete trapping

Structure (SMILES): N=C(N)NCC1COc2ccc(O)cc2O1 (centres unmarked) [^11C-7H-GOX, ^11C-7-hydroxy-guanoxan]
retention time, compared between the two ring hydroxylated guanoxan analogs [1]: longer retention time | uptake, compared between the two ring hydroxylated guanoxan analogs [1]: more rapid uptake
